In US5496847A, “Aminomethyl-benzodioxane and benzopyran serotonergic agents” (Bristol-Myers Squibb Co., priority 1995, dated 1996):
Counter-ions that a name gives are not always drawn.

Biological target: T1, 5-HT1A receptor
T1 construct: from tissue
Test: In vitro binding to the 5-HT1A receptor (method of Peroutka, Brain Research 344, 167 (1985), minor modifications)
Conditions: in vitro binding to 5-HT1A receptor; class symbols
Procedure: In vitro IC50 test values for binding to the 5-HT1A receptor were determined for representative compounds of Formula I by the method of S. J. Peroutka, Brain Research 344, 167 (1985); with only minor modifications. Test IC50 values lower than 100 nM are considered to reflect activity at the 5-HT1A receptor.

T1 sequence (F6Q2H9 1-422): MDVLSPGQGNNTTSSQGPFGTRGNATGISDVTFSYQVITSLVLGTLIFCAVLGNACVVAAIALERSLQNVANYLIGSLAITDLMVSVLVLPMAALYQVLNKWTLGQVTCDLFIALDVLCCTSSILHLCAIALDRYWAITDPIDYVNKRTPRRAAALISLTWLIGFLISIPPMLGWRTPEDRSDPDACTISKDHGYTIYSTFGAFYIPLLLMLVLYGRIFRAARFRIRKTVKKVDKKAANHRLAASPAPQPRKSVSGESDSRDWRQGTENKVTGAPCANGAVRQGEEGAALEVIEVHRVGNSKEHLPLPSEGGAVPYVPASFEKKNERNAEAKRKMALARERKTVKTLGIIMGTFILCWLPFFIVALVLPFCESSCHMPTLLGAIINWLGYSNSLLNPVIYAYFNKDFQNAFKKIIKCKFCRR

IC50, 5 to 25 nM:
COC1(c2ccc3c(c2)OCO3)CCC(NCC2COc3ccccc3O2)CC1 (racemic) [Example 10, (±)-Trans-N-[4-(1,3-benzodioxol-5-yl)-4-methoxycyclohexyl]-1,4-benzodioxane-2-methanamine hemifumarate]
CCN(CC1COc2ccccc2O1)C1CCC(O)(c2ccc3c(c2)OCO3)CC1 (mixture of isomers) [Example 7, (±)-Cis-N-Ethyl-N,[4-(1,3-benzodioxol-5-yl)-4-hydroxycyclohexyl]-1,4-benzodioxane-2-methanamine fumarate]
COC1(c2ccc3c(c2)OCO3)CCC(N(C)CC2COc3ccccc3O2)CC1 (mixture of isomers) [Example 8, (±) -Cis-N-Methyl-N-[4-(1,3-benzodioxol-5-yl)-4-methoxycyclohexyl]-1,4,-benzodioxane-2-methanamine fumarate]
C1=C(c2ccc3c(c2)OCO3)CCC(NC[C@H]2COc3ccccc3O2)C1 (stereo partly drawn) [Example 12, N-[4-(1,3-Benzodioxol-5-yl)-3-cyclohexen-1-yl]-2S-1,4-benzodioxane-2-methanamine]

IC50, < 1 nM:
OC1(c2ccc3c(c2)OCO3)CCC(NCC2CCc3ccccc3O2)CC1 (racemic) [Example 11, (±)-Cis-4-[[(3,4-dihydro-2H-1-benzopyran-2-yl)methyl]amino]-1-(1,3-benzodioxol-5-yl)cyclohexanol]
OC1(c2ccc3c(c2)OCO3)CCC(NCC2COc3ccccc3O2)CC1 (stereo not drawn) [Example 1, Cis-4-[(2S-1,4-Benzodioxan-2-yl)methylamino]-1-(1,3-benzodioxol-5-yl)cyclohexanol]
OC1(c2ccc(F)c(F)c2)CCC(NCC2COc3ccccc3O2)CC1 (racemic) [Example 13, (±)-Cis-4-[(1,4-Benzodioxan-2-yl)methylamino]-1-(3,4-difluorophenyl)cyclohexanol]
COC1(c2ccc3c(c2)OCO3)CCC(NCC2COc3ccccc3O2)CC1 (stereo not drawn) [Example 2, Cis-N-[4-(1,3-Benzodioxol-5-yl)-4-methoxycyclohexyl]-2S-1,4-benzodioxane-2-methanamine hemifumarate]
COC1(c2ccc3c(c2)OCO3)CCC(NCC2COc3ccccc3O2)CC1 (single isomer, unassigned; (-)) [Example 9]

IC50, 1 to 5 nM:
COC1(c2ccc3c(c2)OCCO3)CCC(NCC2COc3ccccc3O2)CC1 (racemic) [Example 4, (±)-Cis-N-[4-(1,4-benzodioxan-6-yl)-4-methoxycyclohexyl]-1,4-benzodioxane-2-methanamine hemifumarate]
CCOC1(c2ccc3c(c2)OCO3)CCC(NCC2COc3ccccc3O2)CC1 (racemic) [Example 5, (±)-Cis-N-[4-(1,3-benzodioxol-5-yl)-4-ethoxycyclohexyl]-1,4-benzodioxane-2-methanamine fumarate]
COC1(c2ccc3c(c2)OCO3)CCC(NCC2COc3ccccc3O2)CC1 (racemic) [Example 6, (±)-Cis-N-[4-(1,3-Benzodioxol-5-yl)-4-methoxycyclohexyl]-1,4-benzodioxane-2-methanamine hemifumarate]
